From patent publication US9695155B2, “Herbicidal substituted pyrimidinyloxy benzene compounds” (E. I. DU PONT DE NEMOURS AND COMPANY, priority 2013, dated 2017)

Experiments:
wheat [1] = assay: Test A postemergence; format: in vivo, Triticum aestivum
In short: (§1)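 Visual 0–100 rating (100 = complete control) taken about 10 d post-treatment relative to untreated checks. Preemergence: directed soil spray on sown loam/sand pots. Postemergence: seedlings 2–10 cm, 1–2 leaf. Non-phytotoxic solvent formulation with surfactant.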

pigweed [2] = assay: Test A preemergence; format: in vivo, Amaranthus retroflexus; conditions: for Pigweed plant response rating: 500 g ai/ha
In short: as §1

rice = assay: Test B flooded paddy test; format: in vivo, Oryza sativa; conditions: Flood, 250 g ai/ha; 0 to 100 scale where 0 is no effect and 100 is complete control
In short: (§2)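 Visual ratings on a 0 to 100 scale, where 100 means complete control, compared treated plants with controls after 13 to 15 days in a greenhouse. Treatment went into paddy water 3 cm deep over the soil, applied to plants at the 2-leaf stage.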

giant foxtail [3] = assay: Test A postemergence; format: in vivo, Setaria faberii
In short: as §1

sedge, umbrella = assay: Test B flooded paddy test; format: in vivo, Cyperus difformis; conditions: Flood, 250 g ai/ha; 0 to 100 scale where 0 is no effect and 100 is complete control
In short: as §2

corn [4] = assay: Test A preemergence; format: in vivo, Zea mays; conditions: for Corn plant response rating: 500 g ai/ha
In short: as §1

giant foxtail [5] = assay: Test A preemergence; format: in vivo, Setaria faberii; conditions: for Foxtail, Giant plant response rating: 500 g ai/ha
In short: as §1

Heteranthera limosa = assay: Test B flooded paddy test; format: in vivo; conditions: Flood, 250 g ai/ha; 0 to 100 scale where 0 is no effect and 100 is complete control
In short: as §2

barnyardgrass [6] = assay: Test A preemergence; format: in vivo, Echinochloa crus-galli; conditions: for Barnyardgrass plant response rating: 500 g ai/ha
In short: as §1

morningglory [7] = assay: Test A postemergence; format: in vivo, Ipomoea spp.
In short: as §1

barnyardgrass [8] = assay: Test A postemergence; format: in vivo, Echinochloa crus-galli
In short: as §1

pigweed [9] = assay: Test A postemergence; format: in vivo, Amaranthus retroflexus
In short: as §1

velvetleaf [10] = assay: Test A preemergence; format: in vivo, Abutilon theophrasti; conditions: for Velvetleaf plant response rating: 500 g ai/ha
In short: as §1

large (Lg) crabgrass [11] = assay: Test A preemergence; format: in vivo, Digitaria sanguinalis; conditions: for Crabgrass, Large plant response rating: 500 g ai/ha
In short: as §1

wheat [12] = assay: Test A preemergence; format: in vivo, Triticum aestivum; conditions: for Wheat plant response rating: 500 g ai/ha
In short: as §1

velvetleaf [13] = assay: Test A postemergence; format: in vivo, Abutilon theophrasti
In short: as §1

large (Lg) crabgrass [14] = assay: Test A postemergence; format: in vivo, Digitaria sanguinalis
In short: as §1

morningglory [15] = assay: Test A preemergence; format: in vivo, Ipomoea spp.; conditions: for Morningglory plant response rating: 500 g ai/ha
In short: as §1

corn [16] = assay: Test A postemergence; format: in vivo, Zea mays
In short: as §1

barnyardgrass [17] = assay: Test B flooded paddy test; format: in vivo, Echinochloa crus-galli; conditions: Flood, 250 g ai/ha; 0 to 100 scale where 0 is no effect and 100 is complete control
In short: as §2

[18] = 125 g ai/ha, 0 to 100 scale where 0 is no effect and 100 is complete control
[19] = 500 g ai/ha, 0 to 100 scale where 0 is no effect and 100 is complete control
[20] = 0 to 100 scale, 0 no effect, 100 complete control, approx. 10 days
[21] = 500 g ai/ha, 0 to 100 scale, 0 no effect, 100 complete control
[22] = 125 g ai/ha, 0 to 100 scale, 0 no effect, 100 complete control
[23] = 0 to 100 scale where 0 is no effect and 100 is complete control

FC(F)(F)c1cccc(Oc2ncc(Br)cn2)c1-n1cc(Br)cn1 [Compound 77]
80: Plant response rating, Velvetleaf (velvetleaf [13]; [18])
100: Plant response rating, Pigweed (pigweed [2]; [18]) | Pigweed plant response rating (pigweed [2]; [20]) | Foxtail, Giant plant response rating (giant foxtail [5]; [20]) | Plant response rating, Morningglory (morningglory [7]; [19]) | Plant response rating, Pigweed (pigweed [9]; [18]) | Plant response rating, Pigweed (pigweed [9]; [19]) | Velvetleaf plant response rating (velvetleaf [10]; [20]) | Crabgrass, Large plant response rating (large (Lg) crabgrass [11]; [20]) | Plant response rating, Velvetleaf (velvetleaf [13]; [19])
20: Plant response rating, Rice (rice) | Plant response rating, Corn (corn [16]; [18])
50: Plant response rating, Foxtail, Giant (giant foxtail [3]; [18]) | Plant response rating, Barnyardgrass (barnyardgrass [6]; [18]) | Plant response rating, Crabgrass, Large (large (Lg) crabgrass [14]; [18])
40: Plant response rating, Ducksalad (Heteranthera limosa) | Plant response rating, Barnyardgrass (barnyardgrass [8]; [18]) | Plant response rating, Corn (corn [16]; [21])
70: Plant response rating, Sedge, Umbrella (sedge, umbrella) | Plant response rating, Morningglory (morningglory [7]; [18]) | Plant response rating, Barnyardgrass (barnyardgrass [8]; [21])
30: Plant response rating, Wheat (wheat [1]; [19])
10: Plant response rating, Morningglory (morningglory [15]; [18])
60: Plant response rating, Velvetleaf (velvetleaf [10]; [18]) | Morningglory plant response rating (morningglory [15]; [20])
0: Plant response rating, Wheat (wheat [1]; [18]) | Plant response rating, Corn (corn [4]; [18]) | Corn plant response rating (corn [4]; [20]) | Plant response rating, Wheat (wheat [12]; [18]) | Wheat plant response rating (wheat [12]; [20]) | Plant response rating, Barnyardgrass (barnyardgrass [17])
90: Plant response rating, Foxtail, Giant (giant foxtail [3]; [19]) | Plant response rating, Foxtail, Giant (giant foxtail [5]; [18]) | Barnyardgrass plant response rating (barnyardgrass [6]; [20]) | Plant response rating, Crabgrass, Large (large (Lg) crabgrass [11]; [18]) | Plant response rating, Crabgrass, Large (large (Lg) crabgrass [14]; [21])

C=Cc1cnn(-c2ccccc2Oc2ncc(Cl)cn2)c1 [Compound 31]
100: Plant response rating, Velvetleaf (velvetleaf [13]; [18]) | Plant response rating, Velvetleaf (velvetleaf [13]; [21])
90: Foxtail, Giant plant response rating (giant foxtail [5]; [20]) | Velvetleaf plant response rating (velvetleaf [10]; [20]) | Crabgrass, Large plant response rating (large (Lg) crabgrass [11]; [20])
50: Plant response rating, Foxtail, Giant (giant foxtail [3]; [21]) | Barnyardgrass plant response rating (barnyardgrass [6]; [20]) | Plant response rating, Barnyardgrass (barnyardgrass [8]; [21]) | Plant response rating, Velvetleaf (velvetleaf [10]; [18]) | Plant response rating, Crabgrass, Large (large (Lg) crabgrass [11]; [18]) | Plant response rating, Crabgrass, Large (large (Lg) crabgrass [14]; [18])
25: Plant response rating, Rice (rice)
30: Plant response rating, Sedge, Umbrella (sedge, umbrella) | Plant response rating, Morningglory (morningglory [7]; [21])
10: Plant response rating, Barnyardgrass (barnyardgrass [8]; [18])
20: Plant response rating, Foxtail, Giant (giant foxtail [5]; [18]) | Plant response rating, Barnyardgrass (barnyardgrass [6]; [18]) | Plant response rating, Corn (corn [16]; [21])
80: Plant response rating, Ducksalad (Heteranthera limosa)
70: Plant response rating, Pigweed (pigweed [9]; [21])
40: Plant response rating, Pigweed (pigweed [2]; [18]) | Plant response rating, Foxtail, Giant (giant foxtail [3]; [18]) | Plant response rating, Pigweed (pigweed [9]; [18])
0: Plant response rating, Wheat (wheat [1]; [18]) | Plant response rating, Wheat (wheat [1]; [21]) | Plant response rating, Corn (corn [4]; [18]) | Corn plant response rating (corn [4]; [20]) | Plant response rating, Morningglory (morningglory [7]; [18]) | Plant response rating, Wheat (wheat [12]; [18]) | Wheat plant response rating (wheat [12]; [20]) | Plant response rating, Morningglory (morningglory [15]; [18]) | Morningglory plant response rating (morningglory [15]; [20]) | Plant response rating, Corn (corn [16]; [18]) | Plant response rating, Barnyardgrass (barnyardgrass [17])
60: Pigweed plant response rating (pigweed [2]; [20]) | Plant response rating, Crabgrass, Large (large (Lg) crabgrass [14]; [21])

CC1(C)OB(c2cnn(-c3c(C#N)cccc3Oc3ncc(Cl)cn3)c2)OC1(C)C [Compound 285]
100: Pigweed plant response rating (pigweed [2]; [23]) | Foxtail, Giant plant response rating (giant foxtail [5]; [23]) | Plant response rating, Pigweed (pigweed [9]; [19]) | Crabgrass, Large plant response rating (large (Lg) crabgrass [11]; [23])
40: Plant response rating, Morningglory (morningglory [7]; [19]) | Velvetleaf plant response rating (velvetleaf [10]; [23]) | Plant response rating, Crabgrass, Large (large (Lg) crabgrass [14]; [19]) | Morningglory plant response rating (morningglory [15]; [23])
80: Pigweed plant response rating (0 to 100 scale) (pigweed [2]; 125 g ai/ha) | Plant response rating, Pigweed (pigweed [9]; [22]) | Crabgrass, Large plant response rating (0 to 100 scale) (large (Lg) crabgrass [11]; 125 g ai/ha) | Plant response rating, Velvetleaf (velvetleaf [13]; [19])
30: Barnyardgrass plant response rating (barnyardgrass [6]; [23]) | Plant response rating, Morningglory (morningglory [7]; [22]) | Plant response rating, Barnyardgrass (barnyardgrass [8]; [19]) | Plant response rating, Velvetleaf (velvetleaf [13]; [22]) | Plant response rating, Corn (corn [16]; [19])
10: Velvetleaf plant response rating (0 to 100 scale) (velvetleaf [10]; 125 g ai/ha) | Plant response rating, Crabgrass, Large (large (Lg) crabgrass [14]; [22])
20: Plant response rating, Wheat (wheat [1]; [19]) | Corn plant response rating (corn [4]; [23]) | Foxtail, Giant plant response rating (0 to 100 scale) (giant foxtail [5]; 125 g ai/ha) | Wheat plant response rating (wheat [12]; [23])
60: Plant response rating, Foxtail, Giant (giant foxtail [3]; [19])
0: Plant response rating, Wheat (wheat [1]; [22]) | Plant response rating, Rice (rice) | Plant response rating, Foxtail, Giant (giant foxtail [3]; [22]) | Plant response rating, Sedge, Umbrella (sedge, umbrella) | Corn plant response rating (0 to 100 scale) (corn [4]; 125 g ai/ha) | Plant response rating, Ducksalad (Heteranthera limosa) | Barnyardgrass plant response rating (0 to 100 scale, 0 is no effect, 100 is complete control) (barnyardgrass [6]; 125 g ai/ha) | Plant response rating, Barnyardgrass (barnyardgrass [8]; [22]) | Wheat plant response rating (0 to 100 scale) (wheat [12]; 125 g ai/ha) | Morningglory plant response rating (0 to 100 scale) (morningglory [15]; 125 g ai/ha) | Plant response rating, Corn (corn [16]; [22]) | Plant response rating, Barnyardgrass (barnyardgrass [17])
